Values after ≈ are worked out from the molar mass of the structure shown. Values joined by “and” are separate entries in the source; they are usually repeats but may differ in a detail not shown here. Equal values may be shown once. “Also recorded” adds a separate entry of the source. Read-outs that look alike come from different tables or passages of the source.
Assays:
Format in all cases: cell-based
[1] = tested on: methicillin-resistant Staphylococcus aureus (MRSA) strain ATCC 700787; test: microbe, parasite or virus in culture; conditions: for MIC / concentration inhibiting MRSA growth: FIG. 6-8; for MIC: Staphylococcus aureus; for synergy with BPEI / change of efficacy against MRSA on addition of BPEI: BPEI 2.65 μg/mL, FIG. 6-10
Description: (§1) A stock culture was diluted in tryptic soy broth (TSB) and delivered into pre-sterilized 96-well plates. Stock solutions of BPEI and antibiotics, prepared in DMSO, were added to each well of a 96-well plate (final DMSO concentration was 1%), followed by inoculation with MRSA in TSB. Optical density measurements were performed with a Tecan Infinite M200 plate reader and an initial OD600 value recorded. The plates were incubated for 20 h in a humidified incubator at 37° C. Plates were removed, orbitally shaken, and a final OD600 value recorded. […] to obtain the change in OD600 (recorded in the figures as ΔOD600). Antimicrobial activity was determined by the change in optical density. Duplicate measurements were performed and the average reported.
(§2) Using the average ΔOD600 values, separate MIC values for BPEI and ampicillin were determined by the lowest concentration of each that inhibited growth.

[2] = tested on: methicillin-resistant Staphylococcus aureus (MRSA) strain ATCC 700787; test: MRSA checkerboard growth inhibition assay with FIC; conditions: for MIC: Staphylococcus aureus; for interaction with BPEI by FIC values (synergy / additive): OD600<0.05 = growth inhibition; for OD600 of growth media: 20 hours
Excerpt: The fractional inhibitory concentration (FIC) as used herein is a measure of the interaction of two agents, such as an antibiotic and a BPEI compound, used together, and is an indicator of synergy. FIC uses a value of the MIC of each of the independent agents, e.g., MICA and MICB for agents A and B, for a particular bacterium as the basis, then takes the concentration of each component in a mixture where an MIC(A in B) is observed. For example, for a two component system of agents A and B, MIC(A in B) is the concentration of A in the compound mixture and MIC(B in A) is the concentration of B in the compound mixture. The FIC is defined as follows: FICA=(MIC(A in B)/MICA) Eqn. 1 FICB=(MIC(B in A)/MICB) Eqn. 2 FICA+B=FICA+FICB Eqn. 3
Synergism (i.e., the two compounds together provide a synergistic effect) is defined herein as occurring when FICA+B≤0.5. The mixture is defined as having an additive effect when […]. When, FICA+B>4 the mixture is considered to have an antagonistic interaction. An example of how FIC is used to determine synergism is shown in U.S. Pat. No. 8,338,476, the entirety of which is incorporated herein by reference in its entirety.
as §1, §2

[3] = tested on: Escherichia coli ATCC 11775; test: E. coli growth inhibition assay (ΔOD600 after 20 h)
Description: (§3) The bacteria used in this work were obtained from the American Type Culture Collection (methicillin-resistant Staphylococcus aureus (MRSA) strain ATCC 700787, Staphylococcus aureus ATCC 25923, Escherichia coli ATCC 11775, Bacillus subtilis (Ehrenberg) Cohn ATCC 23059). Chemicals from Sigma-Aldrich (e.g., DMSO, ampicillin, methicillin, vancomycin, chloramphenicol, and novobiocin) were used as purchased.
as §1

[4] = tested on: Staphylococcus aureus ATCC 25923; test: non-resistant S. aureus growth inhibition assay (ΔOD600 after 20 h); conditions: ATCC25923, ampicillin by itself, FIG. 14
Description: as §3, §1

[5] = with BPEI 2.65 μg/mL (2.7 μg/mL)
[6] = without BPEI, checkerboard FIG. 18-21, read-out: MIC

With `CC1(C)S[C@@H]2[C@H](NC(=O)[C@H](N)c3ccc(O)cc3)C(=O)N2[C@H]1C(=O)O` [amoxicillin] the “MIC / concentration inhibiting MRSA growth” value ([1]; antibiotic without BPEI) was 58 µg/mL (≈ 159 µM), the “MIC / concentration inhibiting MRSA growth” value [1, 5] was 30 µg/mL and 29 µg/mL and the MIC [2, 6] was over 32 µg/mL. For the same molecule, the “interaction with BPEI by FIC values (synergy / additive)” value (“interaction … (synergy / additive)” for short) ([2]; checkerboard FIG. 18-21) was “synergistic activity”.

Work on `CC1(C)S[C@@H]2[C@H](NC(=O)[C@H](N)c3ccccc3)C(=O)N2[C@H]1C(=O)O` [ampicillin] yielded an MIC ([1]; read-out: MIC for ampicillin, with BPEI 2.7 μg/mL, FIG. 2) of 12 to 25 µg/mL (≈ 34.3 to 71.5 µM), an MIC ([1]; read-out: MIC for ampicillin, with BPEI 26 μg/mL, FIG. 5) of about 1.2 µg/mL (≈ 3.43 µM) and an MIC ([1]; read-out: MIC for ampicillin, without BPEI, FIG. 2) of over 50 µg/mL. It also gave an MIC ([1]; read-out: MIC for ampicillin, without BPEI, FIG. 3 (second data set)) of 50 µg/mL (≈ 143 µM), an MIC ([2]; with BPEI 8 μg/mL, Table 1, read-out: ampicillin MIC) of 8 µg/mL and an MIC ([2]; with low-Mw BPEI 16 μg/mL, Table 1, read-out: ampicillin MIC) of 1 µg/mL. The MIC ([2]; without BPEI, Table 1, read-out: ampicillin MIC) was 32 µg/mL, the MIC [2, 6] was over 32 µg/mL and the “OD600 of growth media” value ([2]; ampicillin 0.125 + BPEI 0 μg/mL) was 0.4361. The “OD600 of growth media” value ([2]; ampicillin 0.250 + BPEI 0 μg/mL) was 0.4282, the “OD600 of growth media” value ([2]; ampicillin 0.500 + BPEI 0 μg/mL) was 0.4342 and the “OD600 of growth media” value ([2]; ampicillin 1 + BPEI 0 μg/mL) was 0.4289. The “OD600 of growth media” value ([2]; ampicillin 2 + BPEI 0 μg/mL) was 0.4294, the “OD600 of growth media” value ([2]; ampicillin 4 + BPEI 0 μg/mL) was 0.4375 and the “OD600 of growth media” value ([2]; ampicillin 8 + BPEI 0 μg/mL) was 0.4344. The “OD600 of growth media” value ([2]; ampicillin 16 + BPEI 0 μg/mL) was 0.3287, the “OD600 of growth media” value ([2]; ampicillin 32 + BPEI 0 μg/mL) was 0.0003 and the “OD600 of growth media” value ([2]; ampicillin 64 + BPEI 0 μg/mL) was 0.0014. For the same molecule, the “interaction … (synergy / additive)” value ([2]; checkerboard FIG. 18-21) was “synergistic activity; also recorded: Synergy”, the “factor by which the ampicillin MIC is lowered” value ([2]; with low-Mw BPEI 16 μg/mL) was 32 × and the MIC ([3]; ATCC11775, ampicillin alone, FIG. 12) was 3.7 µg/mL (≈ 10.6 µM). It also gave an MIC ([3]; ATCC11775, with BPEI 2.65 μg/mL, FIG. 12, read-out: MIC for ampicillin) of 3.7 µg/mL (≈ 10.6 µM) and an MIC [4] of about 0.05 µg/mL (≈ 0.143 µM).

With `O=C(N[C@H](CO)[C@H](O)c1ccc([N+](=O)[O-])cc1)C(Cl)Cl` [chloramphenicol] the “synergy with BPEI / change of efficacy against MRSA on addition of BPEI” value (“synergy with BPEI / change of efficacy” below) [1] was “large synergy; also recorded: dramatic synergistic effect”, the “MIC / concentration inhibiting MRSA growth” value ([1]; antibiotic without BPEI) was 50 µg/mL (≈ 155 µM) and the “decrease in the MIC” value ([1]; on addition of 2.7 μg/mL BPEI, FIG. 8) was 10 fold. For the same molecule, the “MIC / concentration inhibiting MRSA growth” value [1, 5] was 5 µg/mL (≈ 15.5 µM).

`COc1cccc(OC)c1C(=O)N[C@@H]1C(=O)N2[C@@H]1SC(C)(C)[C@@H]2C(=O)O` [methicillin] was tested, and the “MIC / concentration inhibiting MRSA growth” value ([1]; antibiotic without BPEI) was over 60 µg/mL, the “MIC / concentration inhibiting MRSA growth” value [1, 5] was 30 µg/mL (≈ 78.9 µM) and the MIC [2, 6] was over 32 µg/mL. For the same molecule, the “interaction … (synergy / additive)” value ([2]; checkerboard FIG. 18-21) was “Synergy occurred”.

In the case of `CO[C@@H]1[C@@H](OC(N)=O)[C@@H](O)[C@H](Oc2ccc3c(O)c(NC(=O)c4ccc(O)c(CC=C(C)C)c4)c(=O)oc3c2C)OC1(C)C` [novobiocin], the “synergy with BPEI / change of efficacy” value [1] is reported as “did not show any synergy; also recorded: not substantially altered”.

For `CN[C@H](CC(C)C)C(=O)N[C@H]1C(=O)N[C@@H](CC(N)=O)C(=O)N[C@H]2C(=O)N[C@H]3C(=O)N[C@H](C(=O)N[C@H](C(=O)O)c4cc(O)cc(O)c4-c4cc3ccc4O)[C@H](O)c3ccc(c(Cl)c3)Oc3cc2cc(c3O[C@@H]2O[C@H](CO)[C@@H](O)[C@H](O)[C@H]2O[C@H]2C[C@](C)(N)[C@H](O)[C@H](C)O2)Oc2ccc(cc2Cl)[C@H]1O` [vancomycin], the “synergy with BPEI / change of efficacy” value [1] was “did not show any synergy; also recorded: does not change”, the MIC [2] was 4 µg/mL and the “interaction … (synergy / additive)” value ([2]; checkerboard FIG. 18-21) was “additive”.
